Peptide text beside a SMILES is read from it.
Columns and labels:
[1] = tested on: Th17 cell differentiation (mouse IL-17); type: cell-based; settings: 1.0 μg/ml; second experiment (Fig. 3B), control 0.1% DMSO; IL-17 ELISA; mean of n = 3
Protocol: Naïve CD4^+ T cells were isolated from the spleen of wild-type Balb/c mice via magnetic-activated cell sorting using a CD4^+ T Cell Isolation Kit (Miltenyi Biotec, Germany), in accordance with the manufacturer’s instructions. The RPMI medium for stimulating Th17 cell differentiation included 10 μg/ml anti-CD3 (eBioscience, USA), 1.5 μg/ml anti-CD28 (eBioscience), 5 ng/ml transforming growth factor-β (R&D Systems, USA), and 20 ng/ml IL-6 (BioLegend, USA). After cells had been cultured in this conditioned medium for 2 days at 37°C, 100 μl of the supernatant was analyzed for mouse IL-17 (mIL-17) using an IL-17-specific enzyme-linked immunosorbent assay (ELISA). All tests were repeated three times independently, and the means and standard deviations (SDs) from three tests were calculated.

[2] = tested on: mTNF-α secretion by J774A.1 cells; test: mTNF-α secretion by LPS-stimulated J774A.1 cells, ELISA; type: cell-based, mouse; settings: 24 h, mean of n = 3; for inhibition of mTNF-α: J774A.1 cells, 100 ng/ml LPS, Fig. 3D
Protocol: The murine monocyte/macrophage cell line J774A.1 was obtained from the American Type Culture Collection (ATCC, USA), grown in Dulbecco’s modified Eagle’s medium (Gibco Laboratories, USA), and cultured at 37°C in humidified 5% CO2. The culture medium was supplemented with 10% fetal bovine serum and 2 mM glutamine. The cells were seeded into 24-well culture plates at a density of 1 × 10^5/ml and allowed to adhere overnight. Thereafter, the medium was replaced with fresh medium. The cells were pre-treated with DMS or a peptide (P1, P2, P3, P4, or P4S) and then stimulated with 100 ng/ml of lipopolysaccharide (LPS). Supernatants were collected after 24 h and stored at -20°C. Concentrations of mouse TNF-α (mTNF-α) were measured using ELISA (Mouse TNF-α DuoSet ELISA Kit; R&D Systems Europe, UK) according to the manufacturer’s instructions. All tests were repeated three times independently, and the results are expressed as means ± SDs.

Row | Molecule | inhibition of mIL-17 [1] [%] | inhibition rate against mTNF-α ([2]; 1 μg/ml, J774A.1 cells pre-treated, then 100 ng/ml LPS, vs LPS-only group, Fig. 3C) [%] | inhibition of mTNF-α ([2]; 0.1 μg/ml) [%] | inhibition of mTNF-α ([2]; 1.0 μg/ml) [%]
1 | CSCC[C@H](NC(=O)[C@H](CC(=O)O)NC(=O)[C@H](CC(=O)O)NC(=O)[C@H](CCSC)NC(=O)[C@@H](NC(=O)[C@H](C)NC(=O)[C@@H]1CCCN1C(=O)[C@@H](N)Cc1ccc(O)cc1)[C@@H](C)O)C(=O)N[C@@H](C)C(=O)N[C@H](C(=O)N[C@@H](CC(=O)O)C(=O)N[C@@H](CO)C(=O)N[C@@H](CC(=O)O)C(=O)N[C@@H](CCC(=O)O)C(=O)N[C@@H](CCC(=O)O)C(=O)N[C@H](C(=O)N[C@@H](CC(=O)O)C(=O)N[C@@H](Cc1ccc(O)cc1)C(=O)O)C(C)C)C(C)C [P4] (H-YPATMDDMAVDSDEEVDY-OH; N-terminus and C-terminus assumed) | 42.4 | 50.2 | – | –
2 | YPATMDDMA [P4S, 9-mer human tIK-derived peptide, fragment homolog of P4] | 43.8 | – | 45.5 | 50.7

Reference: article PMC9728226, “Suppressive Effects of a Truncated Inhibitor K562 Protein-Derived Peptide on Two Proinflammatory Cytokines, IL-17 and TNF-α” (Journal of Microbiology and Biotechnology, 2020)
